Results published in ChEMBL document CHEMBL4190285, “Borapetoside E, a Clerodane Diterpenoid Extracted from Tinospora crispa, Improves Hyperglycemia and Hyperlipidemia in High-Fat-Diet-Induced Type 2 Diabetes Mice” (J Nat Prod, 2017).
Active and inactive are the calls of the source. The rule behind the calls is not given here.

How the values were obtained:
[1] = test system: Mus musculus; assay: Antihyperglycemic activity in high fat diet-induced obese C57BL/6J mouse assessed as reduction in blood glucose level at 200 mg/kg, ig administered twice daily for 2.5 days measured up to 5 days post last dose; assay type: functional, organism-based
[2] = test system: Mus musculus; assay: Antihyperlipidemic activity in high fat diet-induced obese C57BL/6J mouse assessed as serum free fatty acid levels at 200 mg/kg, ip administered twice daily for 2.5 days measured at 2 hrs post last dose (reference value: 1.41 +/- 0.3 mmol/L); assay type: functional
[3] = test system: Mus musculus; assay: Antihyperlipidemic activity in high fat diet-induced obese C57BL/6J mouse assessed as serum triglyceride levels at 200 mg/kg, ip administered twice daily for 2.5 days measured at 2 hrs post last dose (reference value: 1.31 +/- 0.48 mmol/L); assay type: functional
[4] = test system: Mus musculus; assay: Antihyperglycemic activity in high fat diet-induced obese C57BL/6J mouse assessed as reduction in blood glucose level at 200 mg/kg, ig administered as single dose; assay type: functional, organism-based
[5] = test system: Mus musculus; assay: Antihyperlipidemic activity in high fat diet-induced obese C57BL/6J mouse assessed as serum total cholesterol levels at 200 mg/kg, ip administered twice daily for 2.5 days measured at 2 hrs post last dose (reference value: 4.56 +/- 1.01 mmol/L); assay type: functional
[6] = test system: Mus musculus; assay: Antihyperlipidemic activity in high fat diet-induced obese C57BL/6J mouse assessed as serum HDL-C levels at 200 mg/kg, ip administered twice daily for 2.5 days measured at 2 hrs post last dose (reference value: 1.82 +/- 0.58 mmol/L); assay type: functional
[7] = test system: Mus musculus; assay: Antihyperlipidemic activity in high fat diet-induced obese C57BL/6J mouse assessed as serum LDL-C levels at 200 mg/kg, ip administered twice daily for 2.5 days measured at 2 hrs post last dose (reference value: 2.54 +/- 0.87 mmol/L); assay type: functional

**Q.** What does the source list for `CN(C)C(=N)NC(=N)N` [METFORMIN]?
**A.** Activity [1]: Active; Activity [2]: 1.18 mmol/L; Activity [3]: 0.97 mmol/L; Activity [4]: Active; Activity [5]: 4.47 mmol/L; Activity [6]: 2.14 mmol/L; Activity [7]: 2.93 mmol/L
